Data on 6 compounds can be found in patent US9029325B2, “Amylin analogues and pharmaceutical compositions thereof” (Novo Nordisk A/S, priority 2011, dated 2015).

Molecules are shown by their SMILES. Starred links: 1 amine or outer side, 2 acyl side, 3 side chain; linkers in the order of their positions; H or OH if unused. Positions of bridges follow the written chain, without caps; N, C: chain ends. Non-standard residues stand in square brackets, D forms with d. Residues, ends and D or L forms follow the SMILES beside them. *: point of attachment. C20 diacid = O=C(O)CCCCCCCCCCCCCCCCCCC(=O)*; C18 diacid = O=C(O)CCCCCCCCCCCCCCCCC(=O)*; γGlu = O=C(O)[C@H](CCC(=O)[*:2])N[*:1]; Orn = NCCC[C@H](N)C(=O)O; AEEA = NCCOCCOCC(=O)O

This assay can be described thus: Assay (I) efficacy testing on appetite (food intake), ad libitum fed rat model. The following applies: 3 nmol/kg. It counts as in vivo, Sprague Dawley (SD) rats. The method, boiled down: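 Ad libitum fed SD rats (200-250 g) on a reversed light cycle, housed individually, received a single 0.01-3 mg/kg dose ip, po or sc just before lights-off. Individual food intake recorded hourly for 7 h, then at 24 h and sometimes 48 h, versus vehicle; Grubbs outliers excluded.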

`CC[C@H](C)[C@H](NC(=O)[C@@H]1CCCN1C(=O)CNC(=O)[C@H](Cc1ccccc1)NC(=O)[C@H](CC(N)=O)NC(=O)[C@H](CC(N)=O)NC(=O)[C@H](CO)NC(=O)[C@H](CO)NC(=O)[C@H](CCCNC(=N)N)NC(=O)[C@@H](NC(=O)[C@H](CC(C)C)NC(=O)[C@H](Cc1ccccc1)NC(=O)[C@H](CCC(=O)O)NC(=O)[C@H](C)NC(=O)[C@H](CC(C)C)NC(=O)[C@H](CCCNC(=N)N)NC(=O)[C@H](CCC(N)=O)NC(=O)[C@@H](NC(=O)[C@H](C)NC(=O)[C@@H]1CSSC[C@H](NC(=O)[C@H](Cc2c[nH]cn2)NC(=O)CC[C@H](NC(=O)CCCCCCCCCCCCCCCCCCC(=O)O)C(=O)O)C(=O)N[C@@H](CC(N)=O)C(=O)N[C@@H]([C@@H](C)O)C(=O)N[C@@H](C)C(=O)N[C@@H]([C@@H](C)O)C(=O)N1)[C@@H](C)O)C(C)C)C(=O)N[C@@H](CC(C)C)C(=O)N1CCC[C@H]1C(=O)N1CCC[C@H]1C(=O)N[C@H](C(=O)N[C@@H](CC(N)=O)C(=O)N[C@H](C(=O)NCC(=O)N[C@@H](CO)C(=O)N[C@@H](CC(N)=O)C(=O)N[C@H](C(=O)N[C@@H](Cc1ccc(O)cc1)C(N)=O)[C@@H](C)O)C(C)C)[C@@H](C)O` [compound 15] ({C20 diacid-γGlu}-HCNTATCATQRLAEFLVRSSNNFGPILPPTNVGSNTY-NH2; disulfide 2-7 (inferred); C-terminus assumed): the “Food intake reduction 0-24 h 3 nmol/kg (%)” value stood at 56% and the “Food intake reduction 24-48 h 3 nmol/kg (%)” value was 59%.

`CC[C@H](C)[C@H](NC(=O)[C@@H]1CCCN1C(=O)CNC(=O)[C@H](Cc1ccccc1)NC(=O)[C@H](CC(N)=O)NC(=O)[C@H](CC(N)=O)NC(=O)[C@H](CO)NC(=O)[C@H](CO)NC(=O)[C@H](Cc1c[nH]cn1)NC(=O)[C@H](CCCNC(=N)N)NC(=O)[C@H](CC(C)C)NC(=O)[C@H](Cc1ccccc1)NC(=O)[C@H](CCC(=O)O)NC(=O)[C@H](C)NC(=O)[C@H](CC(C)C)NC(=O)[C@H](CCCNC(=N)N)NC(=O)[C@H](CCC(N)=O)NC(=O)[C@@H](NC(=O)[C@H](C)NC(=O)[C@@H]1CSSC[C@H](NC(=O)[C@H](CCCCN)NC(=O)CC[C@H](NC(=O)CCCCCCCCCCCCCCCCCCC(=O)O)C(=O)O)C(=O)N[C@@H](CC(N)=O)C(=O)N[C@@H]([C@@H](C)O)C(=O)N[C@@H](C)C(=O)N[C@@H]([C@@H](C)O)C(=O)N1)[C@@H](C)O)C(=O)N[C@@H](CC(C)C)C(=O)N1CCC[C@H]1C(=O)N1CCC[C@H]1C(=O)N[C@H](C(=O)N[C@@H](CC(N)=O)C(=O)N[C@H](C(=O)NCC(=O)N[C@@H](CO)C(=O)N[C@@H](CC(N)=O)C(=O)N[C@H](C(=O)N[C@@H](Cc1ccc(O)cc1)C(N)=O)[C@@H](C)O)C(C)C)[C@@H](C)O` [compound 50] ({C20 diacid-γGlu}-KCNTATCATQRLAEFLRHSSNNFGPILPPTNVGSNTY-NH2; disulfide 2-7 (inferred); C-terminus assumed): the “Food intake reduction 0-24 h 3 nmol/kg (%)” value came out at 30% and the “Food intake reduction 24-48 h 3 nmol/kg (%)” value is listed as 8%.

Consider `CC[C@H](C)[C@H](NC(=O)[C@@H]1CCCN1C(=O)CNC(=O)[C@H](Cc1ccccc1)NC(=O)[C@H](CC(N)=O)NC(=O)[C@H](CC(N)=O)NC(=O)[C@H](CO)NC(=O)[C@H](CO)NC(=O)[C@H](Cc1c[nH]cn1)NC(=O)[C@H](CCCNC(=N)N)NC(=O)[C@H](CC(C)C)NC(=O)[C@H](Cc1ccccc1)NC(=O)[C@H](CCC(=O)O)NC(=O)[C@H](C)NC(=O)[C@H](CC(C)C)NC(=O)[C@H](CCCNC(=N)N)NC(=O)[C@H](CCC(N)=O)NC(=O)[C@@H](NC(=O)[C@H](C)NC(=O)[C@@H]1CSSC[C@H](NC(=O)[C@H](CCCCN)NC(=O)CC[C@H](NC(=O)CCCCCCCCCCCCCCCCCCC(=O)O)C(=O)O)C(=O)N[C@@H](CC(N)=O)C(=O)N[C@@H]([C@@H](C)O)C(=O)N[C@@H](C)C(=O)N[C@@H]([C@@H](C)O)C(=O)N1)[C@@H](C)O)C(=O)N[C@@H](CC(C)C)C(=O)N1CCC[C@H]1C(=O)N1CCC[C@H]1C(=O)N[C@H](C(=O)N[C@@H](CC(N)=O)C(=O)N[C@H](C(=O)NCC(=O)N[C@@H](CO)C(=O)N[C@@H](Cc1c[nH]cn1)C(=O)N[C@H](C(=O)N[C@@H](Cc1ccc(O)cc1)C(N)=O)[C@@H](C)O)C(C)C)[C@@H](C)O` [Example 57, N-alpha-[(S)-4-Carboxy-4-(19-carboxynonadecanoylamino)butyryl]-[Glu14,Arg17,His35]-pramlintide] ({C20 diacid-γGlu}-KCNTATCATQRLAEFLRHSSNNFGPILPPTNVGSHTY-NH2; disulfide 2-7 (inferred); C-terminus assumed), for which the “Food intake reduction 0-24 h 3 nmol/kg (%)” value was 17% and the “Food intake reduction 24-48 h 3 nmol/kg (%)” value came to 0%.

Consider `CC[C@H](C)[C@H](NC(=O)[C@@H]1CCCN1C(=O)CNC(=O)[C@H](Cc1ccccc1)NC(=O)[C@H](CC(N)=O)NC(=O)[C@H](CC(N)=O)NC(=O)[C@H](CO)NC(=O)[C@H](CO)NC(=O)[C@H](Cc1c[nH]cn1)NC(=O)[C@H](Cc1c[nH]cn1)NC(=O)[C@H](CC(C)C)NC(=O)[C@H](Cc1ccccc1)NC(=O)[C@H](CCC(=O)O)NC(=O)[C@H](C)NC(=O)[C@H](CC(C)C)NC(=O)[C@H](CCCNC(=N)N)NC(=O)[C@H](CCC(N)=O)NC(=O)[C@@H](NC(=O)[C@H](C)NC(=O)[C@@H]1CSSC[C@H](NC(=O)[C@H](CCCCN)NC(=O)CC[C@H](NC(=O)CCCCCCCCCCCCCCCCC(=O)O)C(=O)O)C(=O)N[C@@H](CC(N)=O)C(=O)N[C@@H]([C@@H](C)O)C(=O)N[C@@H](C)C(=O)N[C@@H]([C@@H](C)O)C(=O)N1)[C@@H](C)O)C(=O)N[C@@H](CC(C)C)C(=O)N1CCC[C@H]1C(=O)N1CCC[C@H]1C(=O)N[C@H](C(=O)N[C@@H](CC(N)=O)C(=O)N[C@H](C(=O)NCC(=O)N[C@@H](CO)C(=O)N[C@@H](Cc1c[nH]cn1)C(=O)N[C@H](C(=O)N[C@@H](Cc1ccc(O)cc1)C(N)=O)[C@@H](C)O)C(C)C)[C@@H](C)O` [Example 59, N-alpha-[(S)-4-Carboxy-4-(17-carboxyheptadecanoylamino)butyryl]-[Glu14,His17,His 35]-pramlintide] ({C18 diacid-γGlu}-KCNTATCATQRLAEFLHHSSNNFGPILPPTNVGSHTY-NH2; disulfide 2-7 (inferred); C-terminus assumed), for which the “Food intake reduction 0-24 h 3 nmol/kg (%)” value turned out to be 59% and the “Food intake reduction 24-48 h 3 nmol/kg (%)” value was 27%.

On to `CC[C@H](C)[C@H](NC(=O)[C@@H]1CCCN1C(=O)CNC(=O)[C@H](Cc1ccccc1)NC(=O)[C@H](CC(N)=O)NC(=O)[C@H](CC(N)=O)NC(=O)[C@H](CO)NC(=O)[C@H](CO)NC(=O)[C@H](CCCNC(=N)N)NC(=O)[C@H](Cc1c[nH]cn1)NC(=O)[C@H](CC(C)C)NC(=O)[C@H](Cc1ccccc1)NC(=O)[C@H](CCC(=O)O)NC(=O)[C@H](C)NC(=O)[C@H](CC(C)C)NC(=O)[C@H](CCCNC(=N)N)NC(=O)[C@H](CCC(N)=O)NC(=O)[C@@H](NC(=O)[C@H](C)NC(=O)[C@@H]1CSSC[C@H](NC(=O)[C@H](CCCN)NC(=O)[C@@H](CCCNC(=N)N)NC(=O)[C@@H](CCCNC(=N)N)NC(=O)COCCOCCNC(=O)COCCOCCNC(=O)CC[C@H](NC(=O)CCCCCCCCCCCCCCCCC(=O)O)C(=O)O)C(=O)N[C@@H](CC(N)=O)C(=O)N[C@@H]([C@@H](C)O)C(=O)N[C@@H](C)C(=O)N[C@@H]([C@@H](C)O)C(=O)N1)[C@@H](C)O)C(=O)N[C@@H](CC(C)C)C(=O)N1CCC[C@H]1C(=O)N1CCC[C@H]1C(=O)N[C@H](C(=O)N[C@@H](CC(N)=O)C(=O)N[C@H](C(=O)NCC(=O)N[C@@H](CO)C(=O)N[C@@H](CC(N)=O)C(=O)N[C@H](C(=O)N[C@@H](Cc1ccc(O)cc1)C(N)=O)[C@@H](C)O)C(C)C)[C@@H](C)O` [compound 120] ({C18 diacid-γGlu-AEEA-AEEA}-[dR][dR][Orn]CNTATCATQRLAEFLHRSSNNFGPILPPTNVGSNTY-NH2; disulfide 4-9 (inferred); C-terminus assumed), for which the “Food intake reduction 0-24 h 3 nmol/kg (%)” value turned out to be 53% and the “Food intake reduction 24-48 h 3 nmol/kg (%)” value was determined as 2%.

For the compound `CC[C@H](C)[C@H](NC(=O)[C@@H]1CCCN1C(=O)CNC(=O)[C@H](Cc1ccccc1)NC(=O)[C@H](CC(N)=O)NC(=O)[C@H](CC(N)=O)NC(=O)[C@H](CO)NC(=O)[C@H](CO)NC(=O)[C@H](Cc1c[nH]cn1)NC(=O)[C@H](CCCNC(=N)N)NC(=O)[C@H](CC(C)C)NC(=O)[C@H](Cc1ccccc1)NC(=O)[C@H](CCC(=O)O)NC(=O)[C@H](C)NC(=O)[C@H](CC(C)C)NC(=O)[C@H](CCCNC(=N)N)NC(=O)[C@H](CCC(N)=O)NC(=O)[C@@H](NC(=O)[C@H](C)NC(=O)[C@@H]1CSSC[C@H](NC(=O)[C@H](CCCCN)NC(=O)[C@H](Cc2c[nH]cn2)NC(=O)CC[C@H](NC(=O)CCCCCCCCCCCCCCCCC(=O)O)C(=O)O)C(=O)N[C@@H](CC(N)=O)C(=O)N[C@@H]([C@@H](C)O)C(=O)N[C@@H](C)C(=O)N[C@@H]([C@@H](C)O)C(=O)N1)[C@@H](C)O)C(=O)N[C@@H](CC(C)C)C(=O)N1CCC[C@H]1C(=O)N1CCC[C@H]1C(=O)N[C@H](C(=O)N[C@@H](CC(N)=O)C(=O)N[C@H](C(=O)NCC(=O)N[C@@H](CO)C(=O)N[C@@H](Cc1c[nH]cn1)C(=O)N[C@H](C(=O)N[C@@H](Cc1ccc(O)cc1)C(N)=O)[C@@H](C)O)C(C)C)[C@@H](C)O` [compound 71] ({C18 diacid-γGlu}-HKCNTATCATQRLAEFLRHSSNNFGPILPPTNVGSHTY-NH2; disulfide 3-8 (inferred); C-terminus assumed), the “Food intake reduction 0-24 h 3 nmol/kg (%)” value is 10% and the “Food intake reduction 24-48 h 3 nmol/kg (%)” value worked out at 0%.
